Results taken from patent publication US9730937B2, “RAF kinase modulator compounds and methods of use thereof” (AMBIT BIOSCIENCES CORPORATION, priority 2008, dated 2017).
Read-outs that look alike come from different tables or passages of the source.

Tested on: panel of 290 distinct kinases (321 in the larger panel), excluding mutant variants
[1] = asterisk: panel of 321 distinct kinases
[2] = no asterisk: panel of 290 distinct kinases
[3] = kinase selectivity score, value marked * (larger kinase panel), class symbols

Compound	S35 [2]	further results
COCCOc1cc2ncnc(Sc3cccc(NC(=O)Nc4cc(C(C)(CF)CF)nn4-c4ccccc4)c3)c2cc1OC [Ex 238, 1-[3-(1,3-difluoro-2-methylpropan-2-yl)-1-phenyl-1H-pyrazol-5-yl]-3-{3-[6-methoxy-7-(2-methoxyethoxy)quinazolin-4-ylthio]phenyl}urea]		S35 [1]: D* (D > 0.40)
CCOc1cc2c(Sc3cccc(NC(=O)Nc4cc(C(C)(C)F)no4)c3)ncnc2cc1OC [Ex 394, 1-(3-(6-ethoxy-7-methoxyquinazolin-4-ylthio)phenyl)-3-(3-(2-fluoropropan-2-yl)isoxazol-5-yl)urea]	C (0.20 < C ≦ 0.40)	
COc1ccc(-n2nc(C(C)(C)C)cc2NC(=O)Nc2cccc(Oc3ncnc4cc(OC)c(OC)cc34)c2)cc1 [Ex 361, 1-(3-tert-butyl-1-(4-methoxyphenyl)-1H-pyrazol-5-yl)-3-(3-(6,7-dimethoxyquinazolin-4-yloxy)phenyl)urea]	C (0.20 < C ≦ 0.40)	
COCCOc1cc2ncnc(Oc3cccc(NC(=O)Nc4cc(C5CCOCC5)no4)c3)c2cc1OC [Ex 216, 1-(3-(6-methoxy-7-(2-methoxyethoxy)quinazolin-4-yloxy)phenyl)-3-(3-(tetrahydro-2H-pyran-4-yl)isoxazol-5-yl)urea]		S35 [1]: B* (0.10 < B ≦ 0.20)
COc1cc2ncnc(Oc3cccc(NC(=O)Nc4cc(C(C)(C)C)nn4-c4cccc(Cl)c4)c3)c2cc1OC [Ex 363, 1-(3-tert-butyl-1-(3-chlorophenyl)-1H-pyrazol-5-yl)-3-(3-(6,7-dimethoxyquinazolin-4-yloxy)phenyl)urea]	D (D > 0.40)	
COCCOc1cc2ncnc(Sc3cccc(NC(=O)Nc4ccc(C(F)(F)F)c(F)c4)c3)c2cc1OC [Ex 231, 1-(3-fluoro-4-(trifluoromethyl)phenyl)-3-(3-(6-methoxy-7-(2-methoxyethoxy)quinazolin-4-ylthio)phenyl)urea]		S35 [1]: B* (0.10 < B ≦ 0.20)
COc1cc2ncnc(Sc3cccc(NC(=O)Nc4cc(C(C)(C)C#N)no4)c3)c2cc1OC [Ex 381, 1-(3-(2-cyanopropan-2-yl)isoxazol-5-yl)-3-(3-(6,7-dimethoxyquinazolin-4-ylthio)phenyl)urea]	C (0.20 < C ≦ 0.40)	
COc1cc2ncnc(Oc3cccc(NC(=O)Nc4cc(C(C)(C)C(F)(F)F)on4)c3F)c2cc1OC [Ex 265, 1-(3-(6,7-dimethoxyquinazolin-4-yloxy)-2-fluorophenyl)-3-(5-(1,1,1-trifluoro-2-methylpropan-2-yl)isoxazol-3-yl)urea]	C (0.20 < C ≦ 0.40)	
COCCOc1cc2ncnc(Sc3cccc(NC(=O)Nc4cc(C(C)(C)C)nn4-c4cccc(C)c4)c3)c2cc1OC [Ex 287, 1-(3-tert-butyl-1-m-tolyl-1H-pyrazol-5-yl)-3-(3-(6-methoxy-7-(2-methoxyethoxy)quinazolin-4-ylthio)phenyl)urea]	D (D > 0.40)	
COc1cc2ncnc(Oc3cccc(NC(=O)Nc4cc(C(C)(C)C(F)(F)F)on4)c3)c2cc1OC [Ex 259, 1-(3-(6,7-dimethoxyquinazolin-4-yloxy)phenyl)-3-(5-(1,1,1-trifluoro-2-methylpropan-2-yl)isoxazol-3-yl)urea]	C (0.20 < C ≦ 0.40)	
COc1cc2ncnc(Oc3cccc(NC(=O)Nc4cc(C(C)(C)C)nn4-c4cccc(C(F)(F)F)c4)c3)c2cc1OC [Ex 379, 1-(3-tert-butyl-1-(3-(trifluoromethyl)phenyl)-1H-pyrazol-5-yl)-3-(3-(6,7-dimethoxyquinazolin-4-yloxy)phenyl)urea]	D (D > 0.40)	
COc1cc2ncnc(Oc3cccc(NC(=O)Nc4cc(C(C)(C)C)nn4-c4cccc(F)c4)c3)c2cc1OC [Ex 359, 1-(3-tert-butyl-1-(3-fluorophenyl)-1H-pyrazol-5-yl)-3-(3-(6,7-dimethoxyquinazolin-4-yloxy)phenyl)urea]	D (D > 0.40)	
COc1cc2ncnc(Oc3cc(NC(=O)Nc4cc(C(F)(F)F)nn4-c4ccccc4)c(F)cc3F)c2cc1OC [Ex 271, 1-(5-(6,7-dimethoxyquinazolin-4-yloxy)-2,4-difluorophenyl)-3-(1-phenyl-3-(trifluoromethyl)-1H-pyrazol-5-yl)urea]	D (D > 0.40)	
COc1cc2ncnc(Oc3cccc(NC(=O)Nc4cc(C(C)(C)C)nn4Cc4ccccc4)c3)c2cc1OC [Ex 357, 1-(1-benzyl-3-tert-butyl-1H-pyrazol-5-yl)-3-(3-(6,7-dimethoxyquinazolin-4-yloxy)phenyl)urea]	C (0.20 < C ≦ 0.40)	
COCCOc1cc2ncnc(Oc3cccc(NC(=O)Nc4cc(C(F)(F)F)nn4-c4ccccc4)c3)c2cc1OC [Ex 221, 1-{3-[6-methoxy-7-(2-methoxyethoxy)quinazolin-4-yloxy]phenyl}-3-[1-phenyl-3-(trifluoromethyl)-1H-pyrazol-5-yl]urea]		S35 [1]: C* (0.20 < C ≦ 0.40)
COc1cc2ncnc(Oc3cccc(NC(=O)Nc4cc(C5(C(F)(F)F)CC5)on4)c3)c2cc1OC [Ex 377, 1-(3-(6,7-dimethoxyquinazolin-4-yloxy)phenyl)-3-(5-(1-(trifluoromethyl)cyclopropyl)isoxazol-3-yl)urea]	C (0.20 < C ≦ 0.40)	
COCCOc1cc2ncnc(Sc3cccc(NC(=O)Nc4cc(C(F)(F)F)nn4-c4ccc(C)cc4)c3)c2cc1OC [Ex 243, 1-{3-[6-methoxy-7-(2-methoxyethoxy)quinazolin-4-ylthio]phenyl}-3-[1-p-tolyl-3-(trifluoromethyl)-1H-pyrazol-5-yl]urea]		S35 [1]: C* (0.20 < C ≦ 0.40)

Compound	S35 [2]	further results
COc1cc2ncnc(Oc3ccc(Cl)c(NC(=O)Nc4cc(C(C)(C)C)on4)c3)c2cc1OC [Ex 299, 1-(5-tert-butylisoxazol-3-yl)-3-(2-chloro-5-(6,7-dimethoxyquinazolin-4-yloxy)phenyl)urea]	C (0.20 < C ≦ 0.40)	
COc1cc2c(Oc3cccc(NC(=O)Nc4cc(C(F)(F)F)nn4-c4ccccc4)c3)ncnc2cc1OCCN1CCOCC1 [Ex 396, 1-(3-(6-Methoxy-7-(2-morpholinoethoxy)quinazolin-4-yloxy)phenyl)-3-(1-phenyl-3-(trifluoromethyl)-1H-pyrazol-5-yl)urea]	C (0.20 < C ≦ 0.40)	
COc1cc2ncnc(Oc3cccc(NC(=O)Nc4ccc(C(F)(F)F)c(F)c4)c3)c2cc1OC [Ex 150, 1-(3-(6,7-dimethoxyquinazolin-4-yloxy)phenyl)-3-(3-fluoro-4-(trifluoromethyl)phenyl)urea]		S35 [3]: C* (0.20 < C ≦ 0.40)
COc1cc2ncnc(Sc3cccc(NC(=O)Nc4cc(C(C)(C)C)nn4-c4cccc(C(F)(F)F)c4)c3)c2cc1OC [Ex 380, 1-(3-tert-butyl-1-(3-(trifluoromethyl)phenyl)-1H-pyrazol-5-yl)-3-(3-(6,7-dimethoxyquinazolin-4-ylthio)phenyl)urea]	C (0.20 < C ≦ 0.40)	
CCOc1cc2ncnc(Oc3cccc(NC(=O)Nc4cc(C(C)(C)F)no4)c3)c2cc1OC [Ex 385, 1-(3-(7-ethoxy-6-methoxyquinazolin-4-yloxy)phenyl)-3-(3-(2-fluoropropan-2-yl)isoxazol-5-yl)urea]	C (0.20 < C ≦ 0.40)	
COc1cc2ncnc(Oc3cccc(NC(=O)Nc4cc(C(C)(C)C)nn4-c4ccc(C)cc4)c3)c2cc1OC [Ex 274, 1-(3-tert-butyl-1-p-tolyl-1H-pyrazol-5-yl)-3-(3-(6,7-dimethoxyquinazolin-4-yloxy)phenyl)urea]	D (D > 0.40)	
COc1cc2ncnc(Oc3cccc(NC(=O)Nc4cc(C(C)(C)C)nn4-c4ccc(Cl)cc4)c3)c2cc1OC [Ex 365, 1-(3-tert-butyl-1-(4-chlorophenyl)-1H-pyrazol-5-yl)-3-(3-(6,7-dimethoxyquinazolin-4-yloxy)phenyl)urea]	D (D > 0.40)	
COc1cc2ncnc(Oc3cccc(NC(=O)Nc4cc(C(C)(C)C#N)no4)c3)c2cc1OC [Ex 125, 1-(3-(2-cyanopropan-2-yl)isoxazol-5-yl)-3-(3-(6,7-dimethoxyquinazolin-4-yloxy)phenyl)urea]		S35 [3]: C* (0.20 < C ≦ 0.40)
COc1cc2ncnc(Oc3cccc(NC(=O)Nc4cc(C(F)(F)F)no4)c3)c2cc1OC [Ex 254, 1-(3-(6,7-dimethoxyquinazolin-4-yloxy)phenyl)-3-(3-(trifluoromethyl)isoxazol-5-yl)urea]		S35 [1]: C* (0.20 < C ≦ 0.40)
COCCOc1cc2ncnc(Oc3cccc(NC(=O)Nc4cc(C(F)(F)F)nn4C)c3)c2cc1OC [Ex 220, 1-{3-[6-methoxy-7-(2-methoxyethoxy)quinazolin-4-yloxy]phenyl}-3-[1-methyl-3-(trifluoromethyl)-1H-pyrazol-5-yl]urea]		S35 [1]: C* (0.20 < C ≦ 0.40)
COc1cc2ncnc(Oc3ccc(Cl)c(NC(=O)Nc4cc(C(C)(C)C)nn4-c4ccccc4)c3)c2cc1OC [Ex 301, 1-(3-tert-butyl-1-phenyl-1H-pyrazol-5-yl)-3-(2-chloro-5-(6,7-dimethoxyquinazolin-4-yloxy)phenyl)urea]	D (D > 0.40)	
COc1cc2ncnc(Oc3cccc(NC(=O)Nc4cc(C(C)(C)C)nn4-c4ccc(C)cc4)c3C)c2cc1OC [Ex 288, 1-(3-tert-butyl-1-p-tolyl-1H-pyrazol-5-yl)-3-(3-(6,7-dimethoxyquinazolin-4-yloxy)-2-methylphenyl)urea]	C (0.20 < C ≦ 0.40)	
COc1cc2ncnc(Oc3cc(NC(=O)Nc4cc(C(F)(F)F)nn4-c4ccccc4)ccc3F)c2cc1OC [Ex 397, 1-(3-(6,7-Dimethoxyquinazolin-4-yloxy)-4-fluorophenyl)-3-(1-phenyl-3-(trifluoromethyl)-1H-pyrazol-5-yl)urea]	C (0.20 < C ≦ 0.40)	
COc1cc2ncnc(Oc3cccc(NC(=O)Nc4cc(C(C)(C)C)nn4-c4ccccc4)c3C)c2cc1OC [Ex 289, 1-(3-tert-butyl-1-phenyl-1H-pyrazol-5-yl)-3-(3-(6,7-dimethoxyquinazolin-4-yloxy)-2-methylphenyl)urea]	C (0.20 < C ≦ 0.40)	
COc1cc2ncnc(Oc3cccc(NC(=O)Nc4cc(C(C)(C)F)no4)c3)c2cc1OC [Ex 126, 1-(3-(6,7-dimethoxyquinazolin-4-yloxy)phenyl)-3-(3-(2-fluoropropan-2-yl)isoxazol-5-yl)urea]		S35 (kinase selectivity score, 290 distinct kinases, class symbols): C (0.20 < C ≦ 0.40)
COCCOc1cc2ncnc(Oc3cccc(NC(=O)Nc4cc(C(C)(C)C)nn4-c4ccccc4)c3)c2cc1OC [Ex 210, 1-(3-tert-butyl-1-phenyl-1H-pyrazol-5-yl)-3-(3-(6-methoxy-7-(2-methoxyethoxy)quinazolin-4-yloxy)phenyl)urea]		S35 [1]: D* (D > 0.40)
